Test results reported in US9914730B2, “Azaquinazoline inhibitors of Atypical protein Kinase C” (Ignyta, Inc., priority 2012, dated 2018).

Biological target: T1, full-length human PKCι (Homo sapiens, UniProt P41743)
T1 construct: Recombinant, full-length human PKCι expressed in Sf21 insect cells is also commercially available; purchased; host or cells: Sf21 insect cells
T1 sequence (P41743 1-596): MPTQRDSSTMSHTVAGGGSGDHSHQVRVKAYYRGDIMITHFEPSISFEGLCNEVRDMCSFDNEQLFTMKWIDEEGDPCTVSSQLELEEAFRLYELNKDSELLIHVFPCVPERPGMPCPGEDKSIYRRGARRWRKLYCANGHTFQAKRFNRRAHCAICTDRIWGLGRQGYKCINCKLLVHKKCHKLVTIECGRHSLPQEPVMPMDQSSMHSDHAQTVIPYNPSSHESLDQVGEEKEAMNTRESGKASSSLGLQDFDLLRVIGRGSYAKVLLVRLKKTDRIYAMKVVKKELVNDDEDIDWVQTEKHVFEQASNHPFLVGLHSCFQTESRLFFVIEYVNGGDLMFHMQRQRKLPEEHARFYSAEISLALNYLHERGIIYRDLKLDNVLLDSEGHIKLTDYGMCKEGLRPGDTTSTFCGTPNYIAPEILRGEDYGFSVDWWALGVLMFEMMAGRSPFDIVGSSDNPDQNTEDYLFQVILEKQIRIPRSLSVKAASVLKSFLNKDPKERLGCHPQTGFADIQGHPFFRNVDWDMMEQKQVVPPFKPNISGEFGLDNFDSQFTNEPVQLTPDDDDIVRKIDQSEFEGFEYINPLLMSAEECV
Assay: PKCι IC50 IMAP assay, full-length PKCι at 150 μM ATP
Format: biochemical
Details: read-out: IC50 in IMAP assay against full length PKCi at 150 μM ATP
Outline: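 Full-length hPKCι (Sf21) ~15 pM; 5FAM-peptide 100 nM; ATP 150 μM (5× KM^APP); tris pH7.5/MgCl2/EGTA/DTT/Triton, 4% DMSO; 60 min RT; IMAP stop, 2 h; FP 485/530 nm; IC50 from % inhibition curves.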

SMILES	IC50 [nM]
COc1cncc2nc(-c3ccnc(Nc4cccc(N5CCOCC5)c4)c3)nc(N[C@@H]3CCNC3)c12 [Example 227, {5-Methoxy-2-[2-(3-morpholin-4-yl-phenylamino)-pyridin-4-yl]-pyrido[3,4-d]pyrimidin-4-yl}-(R)-pyrrolidin-3-yl-amine]	< 100
COc1cncc2nc(-c3ccnc(NC(=O)c4cccs4)c3)nc(N[C@@H]3CCNC3)c12 [Example 240, Thiophene-2-carboxylic acid {4-[5-methoxy-4-((R)-pyrrolidin-3-ylamino)-pyrido[3,4-d]pyrimidin-2-yl]-pyridin-2-yl}-amide]	< 100
Fc1cccc(F)c1Nc1cc(-c2nc(N[C@H]3CCNC3)c3c(C4CC4)cncc3n2)ccn1 [Example 2034, {5-Cyclopropyl-2-[2-(2,6-difluoro-phenylamino)-pyridin-4-yl]-pyrido[3,4-d]pyrimidin-4-yl}-(S)-pyrrolidin-3-yl-amine]	< 100
CS(=O)(=O)CCN1CCN(c2nc(-c3ccnc(Nc4ccccc4)c3)nc3cncc(C4CC4)c23)CC1 [Example 663, (4-{5-Cyclopropyl-4-[4-(2-methanesulfonyl-ethyl)-piperazin-1-yl]-pyrido[3,4-d]pyrimidin-2-yl}-pyridin-2-yl)-phenyl-amine]	100 to 1000
Fc1cc(F)c(Nc2cc(-c3nc(N4CCNCC4)c4c(C5CCC5)cncc4n3)ccn2)nc1F [Example 807, [4-(5-Cyclobutyl-4-piperazin-1-yl-pyrido[3,4-d]pyrimidin-2-yl)-pyridin-2-yl]-(3,5,6-trifluoro-pyridin-2-yl)-amine]	< 100
COc1cncc2nc(-c3ccnc4[nH]ccc34)nc(N3CCNCC3)c12 [Example 1200, 5-Methoxy-4-piperazin-1-yl-2-(1H-pyrrolo[2,3-b]pyridin-4-yl)-pyrido[3,4-d]pyrimidine]	< 100
c1cc(-c2nc(N3CCNCC3)c3c(C4CC4)cncc3n2)c2cc([C@H]3C[C@H]4CC[C@@H]3C4)[nH]c2n1 (racemic) [Example 2079, (±)-2-((endo)-2-Bicyclo[2.2.1]hept-2-yl-1H-pyrrolo[2,3-b]pyridin-4-yl)-5-cyclopropyl-4-piperazin-1-yl-pyrido[3,4-d]pyrimidine]	< 100
C[C@H]1CN(c2nc(-c3ccnc(Nc4ccccc4)c3)nc3cncc(C4CC4)c23)CCN1 [Example 569, {4-[5-Cyclopropyl-4-((S)-3-methyl-piperazin-1-yl)-pyrido[3,4-d]pyrimidin-2-yl]-pyridin-2-yl}-phenyl-amine]	< 100
COc1cncc2nc(-c3ccnc(NC(C)=O)c3)nc(N3CCNCC3)c12 [Example 214, N-[4-(5-Methoxy-4-piperazin-1-yl-pyrido[3,4-d]pyrimidin-2-yl)-pyridin-2-yl]-acetamide]	< 100
C[C@H]1CN(c2nc(-c3ccnc(Nc4ccc(C(F)(F)F)cn4)c3)nc3cncc(C4CC4)c23)CCN1 [Example 839, {4-[5-Cyclopropyl-4-((S)-3-methyl-piperazin-1-yl)-pyrido[3,4-d]pyrimidin-2-yl]-pyridin-2-yl}-(5-trifluoromethyl-pyridin-2-yl)-amine]	< 100
COc1cncc2nc(-c3ccnc(Nc4ccc(Cl)cn4)c3)nc(N3CCNCC3)c12 [Example 366, (5-Chloro-pyridin-2-yl)-[4-(5-methoxy-4-piperazin-1-yl-pyrido[3,4-d]pyrimidin-2-yl)-pyridin-2-yl]-amine]	< 100
CN1Cc2ccc(Nc3cc(-c4nc(N5CCC(O)CC5)c5c(C6CC6)cncc5n4)ccn3)cc2C1 [Example 821, 1-{5-Cyclopropyl-2-[2-(2-methyl-2,3-dihydro-1H-isoindol-5-ylamino)-pyridin-4-yl]-pyrido[3,4-d]pyrimidin-4-yl}-piperidin-4-ol]	< 100
N#Cc1ccnc(Nc2cc(-c3nc(N4CCN5C(=O)OCC5C4)c4c(C5CC5)cncc4n3)ccn2)c1 (centres unmarked) [Example 533, 2-{4-[5-Cyclopropyl-4-(3-oxo-tetrahydro-oxazolo[3,4-a]pyrazin-7-yl)-pyrido[3,4-d]pyrimidin-2-yl]-pyridin-2-ylamino}-isonicotinonitrile]	100 to 1000
CN(c1nc(-c2ccnc(Nc3nc(F)c(F)cc3F)c2)nc2cncc(C3CC3)c12)C1CCNCC1 [Example 2014, {5-Cyclopropyl-2-[2-(3,5,6-trifluoro-pyridin-2-ylamino)-pyridin-4-yl]-pyrido[3,4-d]pyrimidin-4-yl}-methyl-piperidin-4-yl-amine]	< 100
O=C(Nc1cc(-c2nc(N3CCNCC3)c3c(C4CC4)cncc3n2)ccn1)C1CC1 [Example 584, Cyclopropane-carboxylic acid [4-(5-cyclopropyl-4-piperazin-1-yl-pyrido[3,4-d]pyrimidin-2-yl)-pyridin-2-yl]-amide]	< 100
c1ccc2cc(Nc3cc(-c4nc(N5CCNCC5)c5c(C6CC6)cncc5n4)ccn3)ccc2c1 [Example 2050, [4-(5-Cyclopropyl-4-piperazin-1-yl-pyrido[3,4-d]pyrimidin-2-yl)-pyridin-2-yl]-naphthalen-2-yl-amine]	< 100
COc1cc(Nc2cc(-c3nc(N4CCNCC4)c4c(C5CC5)cncc4n3)ccn2)ccc1C1CC1 [Example 637, (4-Cyclopropyl-3-methoxy-phenyl)-[4-(5-cyclopropyl-4-piperazin-1-yl-pyrido[3,4-d]pyrimidin-2-yl)-pyridin-2-yl]-amine]	< 100
Cc1nccc2c(N3CCNCC3)nc(-c3ccncc3)nc12 [Example 160, 8-Methyl-4-piperazin-1-yl-2-pyridin-4-yl-pyrido[3,4-d]pyrimidine]	10000 to 40000
COC(=O)[C@@H]1C[C@H](Nc2nc(-c3ccncc3)nc3cnccc23)CN1 [Example 39, methyl (2S,4S)-4-{[2-(pyridin-4-yl)pyrido[3,4-d]-pyrimidin-4-yl]-amino}pyrrolidine-2-carboxylate]	10000 to 40000
COc1cncc2nc(-c3ccnc(Nc4cnn(-c5ccccc5F)c4)c3)nc(N3CCNCC3)c12 [Example 491, [1-(2-Fluoro-phenyl)-1H-pyrazol-4-yl]-[4-(5-methoxy-4-piperazin-1-yl-pyrido[3,4-d]pyrimidin-2-yl)-pyridin-2-yl]-amine]	< 100
Clc1ccc(Nc2cc(-c3nc(N[C@@H]4CCNC4)c4ccncc4n3)ccn2)nc1 [Example 346, {2-[2-(5-Chloro-pyridin-2-ylamino)-pyridin-4-yl]-pyrido[3,4-d]pyrimidin-4-yl}-(R)-pyrrolidin-3-yl-amine]	< 100
CC1(C)CNCCC1Nc1nc(-c2ccnc(Nc3ncc(F)cc3F)c2)nc2cncc(C3CC3)c12 (centres unmarked) [Example 2175, {5-Cyclopropyl-2-[2-(3,5-difluoro-pyridin-2-ylamino)-pyridin-4-yl]-pyrido[3,4-d]pyrimidin-4-yl}-(3,3-dimethyl-piperidin-4-yl)-amine]	< 100
COc1cncc2nc(-c3ccnc(Nc4ccc(N5CCNCC5)nc4)c3)nc(N3CCNCC3)c12 [Example 412, [4-(5-Methoxy-4-piperazin-1-yl-pyrido[3,4-d]pyrimidin-2-yl)-pyridin-2-yl]-(6-piperazin-1-ylpyridin-3-yl)-amine]	< 100
c1cc2c(N[C@@H]3CCNC3)nc(-c3ccnc(Nc4ccc(Cn5ccnc5)cc4)c3)nc2cn1 [Example 322, {2-[2-(4-Imidazol-1-ylmethyl-phenylamino)-pyridin-4-yl]-pyrido[3,4-d]pyrimidin-4-yl}-(R)-pyrrolidin-3-yl-amine]	100 to 1000
CNc1nc(-c2ccnc(Nc3cccc(C4CCNCC4)c3)c2)nc2cncc(OC)c12 [Example 502, {5-Methoxy-2-[2-(3-piperidin-4-yl-phenylamino)-pyridin-4-yl]-pyrido[3,4-d]pyrimidin-4-yl}-methyl-amine]	1000 to 10000
CN1CCN(c2cccc(Nc3cc(-c4nc(N5CCN(C(N)=O)CC5)c5c(C6CC6)cncc5n4)ccn3)c2)CC1 [Example 687, 4-(5-Cyclopropyl-2-{2-[3-(4-methyl-piperazin-1-yl)-phenylamino]-pyridin-4-yl}-pyrido[3,4-d]pyrimidin-4-yl)-piperazine-1-carboxylic acid amide]	100 to 1000
COc1ccc(Nc2cc(-c3nc(N4CCNCC4)c4c(OC)cncc4n3)ccn2)cn1 [Example 394, [4-(5-Methoxy-4-piperazin-1-yl-pyrido[3,4-d]pyrimidin-2-yl)-pyridin-2-yl]-(6-methoxy-pyridin-3-yl)-amine]	< 100
Fc1ccccc1Nc1cc(-c2nc(N3CCNCC3)c3c(Cl)cncc3n2)ccn1 [Example 247, [4-(5-Chloro-4-piperazin-1-yl-pyrido[3,4-d]pyrimidin-2-yl)-pyridin-2-yl]-(2-fluoro-phenyl)-amine]	100 to 1000
CN(c1nc(-c2ccnc3[nH]c(C(F)(F)F)cc23)nc2cncc(C3CC3)c12)[C@@H]1CCNC1 [Example 2088, [5-Cyclopropyl-2-(2-trifluoromethyl-1H-pyrrolo[2,3-b]pyridin-4-yl)-pyrido[3,4-d]pyrimidin-4-yl]-methyl-(R)-pyrrolidin-3-yl-amine]	< 100
